One block for each compound: values may come before it. The source made the active and inactive calls.
Columns and labels:
[1] = Luminescence Cell-Based Dose Retest to Confirm Inhibitors of Cancer Stem Cells. [Related pubchem assays (depositor defined):AID2717, AID2721]; type: functional; settings: Homo sapiens
[2] = viability of uninfected HEp-2 cells – cell-based, HTS, cytotoxicity control for RSV inhibitor project, dose response (AID 2410); type: functional; settings: human respiratory syncytial virus
H9c2 = test: cells; type: functional, cell-based; settings: Rattus norvegicus, H9c2, Myocardium;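 note: confirmatory concentration-response retest of ultra-high-throughput screening hits for modulation of myocardial damage; cell death induced by hydrogen peroxide oxidative stress; compound pretreatment for 60 min then peroxide exposure for 2 h; potency is for protecting the cells against peroxide damage rather than for killing them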
[3] = target: Glucose-6-phosphate 1-dehydrogenase (Homo sapiens, UniProt P11413); test: inhibition of Homo sapiens G6PD, dose series – biochemical, fluorescence, selectivity assay for P. falciparum G6PD inhibitor project, dose response (AID 504792); type: functional
Chain of Glucose-6-phosphate 1-dehydrogenase (P11413 whole entry): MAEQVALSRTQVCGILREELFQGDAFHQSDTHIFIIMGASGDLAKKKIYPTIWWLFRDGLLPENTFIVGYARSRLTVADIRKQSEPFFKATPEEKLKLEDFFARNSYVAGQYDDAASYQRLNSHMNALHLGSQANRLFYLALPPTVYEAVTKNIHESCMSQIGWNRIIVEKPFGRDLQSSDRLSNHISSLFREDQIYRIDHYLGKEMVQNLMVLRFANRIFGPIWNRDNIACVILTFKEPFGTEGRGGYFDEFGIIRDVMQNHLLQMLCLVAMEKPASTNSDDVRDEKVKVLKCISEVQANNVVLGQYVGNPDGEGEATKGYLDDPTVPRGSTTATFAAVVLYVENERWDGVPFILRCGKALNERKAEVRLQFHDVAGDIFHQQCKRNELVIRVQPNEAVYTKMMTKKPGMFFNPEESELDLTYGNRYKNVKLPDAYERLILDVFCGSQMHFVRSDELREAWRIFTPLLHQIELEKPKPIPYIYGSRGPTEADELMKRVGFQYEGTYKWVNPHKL

[4] = target: DNA dC->dU-editing enzyme APOBEC-3G (Homo sapiens, UniProt Q9HC16); test: Dose Response confirmation of small molecule APOBEC3G DNA Deaminase Inhibitors via a fluorescence-based single-stranded DNA deaminase assay. [Related pubchem assays (depositor defined):AID493012, AID493028]; type: functional
Chain of DNA dC->dU-editing enzyme APOBEC-3G (Q9HC16 whole entry): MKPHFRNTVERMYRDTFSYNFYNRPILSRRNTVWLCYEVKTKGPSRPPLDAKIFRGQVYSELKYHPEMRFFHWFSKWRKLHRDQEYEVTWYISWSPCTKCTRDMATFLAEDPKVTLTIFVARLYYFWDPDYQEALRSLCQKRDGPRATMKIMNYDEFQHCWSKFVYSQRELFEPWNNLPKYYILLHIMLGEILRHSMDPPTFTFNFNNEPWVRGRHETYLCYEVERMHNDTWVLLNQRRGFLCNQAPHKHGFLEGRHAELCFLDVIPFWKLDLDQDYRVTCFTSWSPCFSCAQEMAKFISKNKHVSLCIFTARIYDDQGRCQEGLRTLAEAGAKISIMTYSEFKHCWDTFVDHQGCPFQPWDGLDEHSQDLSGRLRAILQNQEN

[5] = intracellular Trypanosoma cruzi inhibitors in host cells – cell-based, plate reader, cherry-pick samples, set 3, dose response (AID 651818); type: functional;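 note: compounds incubated with infected cells for about four days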
[6] = target: Induced myeloid leukemia cell differentiation protein Mcl-1 (Homo sapiens, UniProt Q07820); type: functional
Chain of Induced myeloid leukemia cell differentiation protein Mcl-1 (Q07820 whole entry): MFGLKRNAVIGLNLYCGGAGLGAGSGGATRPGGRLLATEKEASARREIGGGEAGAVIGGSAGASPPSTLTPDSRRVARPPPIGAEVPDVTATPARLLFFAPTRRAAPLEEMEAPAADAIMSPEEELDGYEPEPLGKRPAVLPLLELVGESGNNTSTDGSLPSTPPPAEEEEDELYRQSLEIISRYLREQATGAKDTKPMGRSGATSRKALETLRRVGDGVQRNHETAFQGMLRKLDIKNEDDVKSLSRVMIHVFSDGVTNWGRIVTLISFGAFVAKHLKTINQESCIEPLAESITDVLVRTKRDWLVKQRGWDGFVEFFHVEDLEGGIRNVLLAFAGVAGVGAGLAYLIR

BJ [7] = test: cells; type: functional, cell-based; settings: Homo sapiens
[8] = DRD fibroblast viability loss – cell-based, non-viral oncogenic, luminescence, dose response (AID 1934); type: functional; settings: Homo sapiens
BJ [9] = test: BJ-TERT fibroblast viability loss – cell-based, RAS-independent, luminescence, dose response (AID 1933); type: functional; settings: Homo sapiens
BJ [10] = test: BJ-TERT-LT-ST fibroblast viability loss – cell-based, RAS-independent, luminescence, dose response (AID 1935); type: functional; settings: Homo sapiens;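 note: BJ fibroblasts immortalized with TERT plus LT and ST oncogenes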
[11] = target: Peroxisome proliferator-activated receptor gamma/Nuclear receptor coactivator 3 (Homo sapiens, UniProt P37231); test: (§1) TR-FRET dose response biochemical High Throughput Screening assay for agonists of the steroid receptor coactivator 3 (SRC-3) recruitment by the peroxisome proliferator-activated receptor gamma (PPAR gamma): non-selective agonists. [Related pubchem assays: 1301 (Confirmation screen.), 1048 (Primary screen.)]; type: functional
Chain of Peroxisome proliferator-activated receptor gamma/Nuclear receptor coactivator 3 (P37231 whole entry): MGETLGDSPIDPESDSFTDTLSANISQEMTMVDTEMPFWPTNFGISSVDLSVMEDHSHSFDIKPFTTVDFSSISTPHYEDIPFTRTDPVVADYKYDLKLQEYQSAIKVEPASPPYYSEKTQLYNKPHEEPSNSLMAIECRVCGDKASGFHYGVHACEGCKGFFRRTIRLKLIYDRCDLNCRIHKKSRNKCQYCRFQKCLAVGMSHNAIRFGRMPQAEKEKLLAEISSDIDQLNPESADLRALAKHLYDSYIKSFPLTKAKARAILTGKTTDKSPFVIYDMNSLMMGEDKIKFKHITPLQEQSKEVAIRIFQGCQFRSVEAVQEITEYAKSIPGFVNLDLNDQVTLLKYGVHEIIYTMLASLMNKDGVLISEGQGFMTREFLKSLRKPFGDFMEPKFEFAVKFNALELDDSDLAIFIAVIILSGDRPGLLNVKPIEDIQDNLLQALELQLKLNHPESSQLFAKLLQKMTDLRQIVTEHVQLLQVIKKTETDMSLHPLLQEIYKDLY
Chain of Peroxisome proliferator-activated receptor gamma/Nuclear receptor coactivator 3 (Q9Y6Q9 whole entry, further chain): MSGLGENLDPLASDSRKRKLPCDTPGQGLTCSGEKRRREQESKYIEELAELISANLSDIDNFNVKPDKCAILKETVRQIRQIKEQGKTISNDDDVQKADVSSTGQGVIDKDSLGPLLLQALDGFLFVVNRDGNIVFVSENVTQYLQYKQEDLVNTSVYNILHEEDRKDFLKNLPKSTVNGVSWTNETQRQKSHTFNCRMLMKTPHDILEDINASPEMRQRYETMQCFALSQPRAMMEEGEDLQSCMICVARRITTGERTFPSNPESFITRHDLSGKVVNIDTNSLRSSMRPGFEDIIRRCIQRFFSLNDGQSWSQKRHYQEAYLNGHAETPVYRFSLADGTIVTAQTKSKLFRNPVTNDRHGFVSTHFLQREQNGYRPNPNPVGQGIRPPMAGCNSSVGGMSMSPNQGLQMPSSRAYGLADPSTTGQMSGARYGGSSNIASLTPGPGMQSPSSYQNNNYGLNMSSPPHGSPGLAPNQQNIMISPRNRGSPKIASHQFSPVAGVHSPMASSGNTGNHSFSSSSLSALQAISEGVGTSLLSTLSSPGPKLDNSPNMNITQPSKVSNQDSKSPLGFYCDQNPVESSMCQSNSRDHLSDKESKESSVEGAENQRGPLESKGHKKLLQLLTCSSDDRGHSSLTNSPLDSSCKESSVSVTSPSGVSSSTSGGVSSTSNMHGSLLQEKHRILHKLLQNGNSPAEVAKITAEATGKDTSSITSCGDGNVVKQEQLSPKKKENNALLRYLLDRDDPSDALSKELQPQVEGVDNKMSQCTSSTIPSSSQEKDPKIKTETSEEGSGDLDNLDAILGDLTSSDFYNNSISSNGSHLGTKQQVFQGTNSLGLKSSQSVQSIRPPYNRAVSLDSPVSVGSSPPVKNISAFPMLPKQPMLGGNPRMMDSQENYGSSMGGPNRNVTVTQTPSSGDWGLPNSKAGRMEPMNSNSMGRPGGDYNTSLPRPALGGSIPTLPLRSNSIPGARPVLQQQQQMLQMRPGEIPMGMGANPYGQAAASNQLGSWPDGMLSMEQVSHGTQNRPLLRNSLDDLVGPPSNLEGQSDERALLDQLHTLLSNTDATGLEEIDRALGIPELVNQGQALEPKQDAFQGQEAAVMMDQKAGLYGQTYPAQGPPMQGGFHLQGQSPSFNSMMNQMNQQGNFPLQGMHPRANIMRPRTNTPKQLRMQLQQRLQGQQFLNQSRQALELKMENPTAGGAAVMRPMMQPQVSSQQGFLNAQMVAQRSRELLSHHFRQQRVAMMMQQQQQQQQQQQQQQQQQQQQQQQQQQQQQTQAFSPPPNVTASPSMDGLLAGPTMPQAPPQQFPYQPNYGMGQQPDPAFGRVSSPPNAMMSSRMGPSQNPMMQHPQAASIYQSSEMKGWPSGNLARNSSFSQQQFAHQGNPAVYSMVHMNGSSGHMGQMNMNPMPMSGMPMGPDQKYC

[12] = target: Peroxisome proliferator-activated receptor gamma/Nuclear receptor coactivator 1 (Homo sapiens, UniProt P37231); test: as §1, with “1 (SRC-1)” for “3 (SRC-3)”, “assays (depositor defined):AID1300, AID1808, AID504735, AID631]” for “assays: 1301 (Confirmation screen.), 1048 (Primary screen.)]”; type: protein assay
[13] = target: T1, Rac GTPase-activating protein 1 (Homo sapiens, UniProt Q9H0H5); test: blockers of MgcRacGAP-driven Rac1 GTP hydrolysis – biochemical, ADP Hunter fluorescence, primary and confirmatory, confirmation (AID 624330); type: functional
T1 sequence (Q9H0H5 whole entry): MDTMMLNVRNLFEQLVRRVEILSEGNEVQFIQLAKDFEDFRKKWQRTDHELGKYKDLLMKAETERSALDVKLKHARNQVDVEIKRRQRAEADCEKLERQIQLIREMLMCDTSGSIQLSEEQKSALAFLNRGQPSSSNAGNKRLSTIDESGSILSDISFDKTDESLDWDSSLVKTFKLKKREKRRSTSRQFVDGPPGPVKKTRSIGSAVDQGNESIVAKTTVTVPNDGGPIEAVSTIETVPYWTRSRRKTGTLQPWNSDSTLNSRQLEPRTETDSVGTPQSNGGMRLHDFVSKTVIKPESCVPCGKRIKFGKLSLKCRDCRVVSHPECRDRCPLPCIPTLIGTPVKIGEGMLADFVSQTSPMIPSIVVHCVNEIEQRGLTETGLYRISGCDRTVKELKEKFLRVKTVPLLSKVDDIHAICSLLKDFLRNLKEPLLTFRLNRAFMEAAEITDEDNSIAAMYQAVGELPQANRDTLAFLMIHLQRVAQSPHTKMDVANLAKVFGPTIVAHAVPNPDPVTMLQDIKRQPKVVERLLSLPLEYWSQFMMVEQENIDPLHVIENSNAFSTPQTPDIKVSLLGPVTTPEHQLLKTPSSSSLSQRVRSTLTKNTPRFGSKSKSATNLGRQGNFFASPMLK

[14] = target: Peroxisome proliferator-activated receptor gamma/Nuclear receptor coactivator 2 (Homo sapiens, UniProt P37231); test: TR-FRET dose response biochemical High Throughput Screening assay for agonists of the steroid receptor coactivator 2 (SRC-2) recruitment by the peroxisome proliferator-activated receptor gamma (PPAR gamma): non-selective agonists. [Related pubchem assays: 1297, 1032 ]; type: functional

Compound: Cc1cccc2sc(NC(=O)C3c4ccccc4Oc4ccccc43)nc12
- AC50 [1]: 2.83 µM (active)
- CC50 [2]: 15.1 µM (active)

Compound: O=C(COC(=O)CCc1nc(O)c2ccccc2n1)NCc1ccc(F)cc1
- IC50 (H9c2): > 79 µM (inactive)

Compound: O=S(=O)(NCc1csc(-c2ccccc2)n1)c1ccc(Cl)s1
- IC50 [3]: > 80 µM (inactive)

Compound: CCCCCCn1c(SCC(=O)OC)nc2c1c(=O)[nH]c(=O)n2C
- IC50 [4]: 51.6 µM (active)

- IC50 [3]: 63.8 µM (inactive)
Compound: Nc1nc(O)nc(O)c1N=Cc1ccccc1

Compound: CCN(CC(=O)NC1CCCCC1)S(=O)(=O)c1ccc(Cl)cc1
- AC50 [1]: > 195 µM (inactive)

- IC50 [3]: > 80 µM (inactive)
Compound: CCN1CCCC1CNC(=O)c1ccc2c(c1)NC(=O)/C(=C\c1ccccc1Cl)S2 (configuration not stated)

- IC50 [3]: 55.2 µM (inactive)
Compound: O=C(CCSCCC(=O)NN=Cc1ccccc1)NN=Cc1ccccc1

Compound: C[C@H](CO)N1C[C@H](C)[C@H](CN(C)Cc2ccc(C(=O)Nc3ccccc3N)cc2)Oc2ccc(NC(=O)C3CCCCC3)cc2CC1=O
- AC50 [5]: 3.41 µM (active)

Compound: C[C@@H]1CN([C@@H](C)CO)C(=O)c2cccc(NC(=O)NC3CCCCC3)c2O[C@H]1CN(C)Cc1ccc(C(F)(F)F)cc1
- AC50 [5]: 2.86 µM (active)

Compound: C[C@H]1CN([C@@H](C)CO)C(=O)c2cc(NC(=O)Nc3ccc4c(c3)OCO4)ccc2O[C@@H]1CN(C)Cc1ccc(Oc2ccccc2)cc1
- AC50 [5]: 4.01 µM (active)

Compound: CC(C)NC(=O)Nc1ccc2c(c1)CC(=O)N([C@H](C)CO)C[C@H](C)[C@H](CN(C)Cc1ccc(C(=O)Nc3ccccc3N)cc1)O2
- AC50 [5]: 4 µM (active)

Compound: COc1ccc(S(=O)(=O)Nc2ccc3c(c2)CC(=O)N([C@H](C)CO)C[C@@H](C)[C@H](CN(C)Cc2ccc4c(c2)OCO4)O3)cc1
- AC50 [5]: 5.51 µM (active)

Compound: C[C@H](CO)N1C[C@H](C)[C@H](CN(C)Cc2ccc3c(c2)OCO3)Oc2ccc(NC(=O)NC3CCCCC3)cc2C1=O
- AC50 [5]: 1.82 µM (active)

Compound: C[C@H]1CN([C@@H](C)CO)C(=O)c2cccc(NC(=O)Nc3ccccc3)c2O[C@@H]1CN(C)Cc1ccc(C(=O)Nc2ccccc2N)cc1
- AC50 [5]: 1.54 µM (active)

Compound: C[C@H](CO)N1C[C@H](C)[C@H](CN(C)Cc2ccc(C(=O)Nc3ccccc3N)cc2)Oc2c(NC(=O)Nc3ccc4c(c3)OCO4)cccc2C1=O
- AC50 [5]: 5.97 µM (active)

- IC50 [6]: 4.37 µM (not active)
Compound: CCN1C(=O)C(C)S/C1=N\S(=O)(=O)c1ccc(F)cc1 (configuration not stated)

Compound: Cc1ccc(NC(=S)N/N=C/c2c(Cl)cccc2Cl)c(C)c1
- EC50 (BJ [7]): 3.48 µM (inconclusive)
- EC50 [8]: 2.58 µM (active)
- EC50 (BJ [9]): 2.66 µM (active)
- AC50 [1]: 0.368 µM (active)
- EC50 (BJ [10]): 3.99 µM (inconclusive)

- EC50 [11]: > 79.4 µM (not active)
- EC50 [12]: 27.9 µM (inactive)
- IC50 [13]: 11.2 µM (active)
- EC50 [14]: 19.4 µM (not active)
Compound: Cc1ccc(Cl)cc1-c1ccc(/C=N/c2ccc(N3CCOCC3)cc2)o1

— ChEMBL document CHEMBL1201862, “PubChem BioAssay data set” (2004)
